# Assay: pH of aqueous solution of the crystalline salt
# Type: physicochemical
# Details: 14.00 mg crystalline salt in 140 microliters of water
# Description: Gabapentin (0.55857 g) and ethanedisulfonic acid (0.62940 g) were transferred into a 20 mL scintillation vial. Water (1.5 mL) was added and the mixture was heated to 85 deg. C. to dissolve all of the solids. The solution was filtered through a 0.2 micron filter into a new 20 mL scintillation vial. The vial was capped and placed in the refrigerator (2-4 deg. C.) for 2 hours. The resulting crystals were collected by vacuum filtration (345.83 mg) and analyzed by PXRD. Upon analysis, the crystals were determined to be gabapentin ethanedisulfonic acid salt. A small amount of the crystalline salt (14.00 mg) was weighted into a 3 mL vial and 140 microliters of water was added. The pH of the resulting solution was determined to be 1.2. […] The salt can be characterized by any one, any two, any three, any four, any five, or any six or more of the peaks in FIG. 13 including, but not limited to, 6.0, 11.51, 15.11, 16.17, 17.31, 17.85, 19.73, 20.19, 22.21, 24.63, 26.73, and 28.47 degrees 2-theta.
substance,measurement,value
gabapentin ethanedisulfonic acid salt,pH of the resulting solution,1.2

# Source: US20040214893A1, “Gabapentin compositions” (priority 2003, published 2004)
